From ChEMBL document CHEMBL4354830, “Discovery of Benzo[cd]indol-2(1H)-ones and Pyrrolo[4,3,2-de]quinolin-2(1H)-ones as Bromodomain and Extra-Terminal Domain (BET) Inhibitors with Selectivity for the First Bromodomain with Potential High Efficiency against Acute Gouty Arthritis” (J Med Chem, 2019)
Calls of active or inactive are those of the source. The rule behind the calls is not given here.

Legend:
[1] = biological target: T1, Bromodomain-containing protein 4 (Homo sapiens, UniProt O60885); assay: Displacement of tetra-acetylated histone H4 peptide (1-21) from recombinant human N-terminal His-tagged BRD4 BD1 (44 to 170 residues) expressed in Escherichia coli incubated for 30 mins followed by further incubation with tetra-acetylated histone H4 peptide (1-21) for 30 mins by Alphascreen assay
[2] = system: RAW264.7; assay: Inhibition of LPS-induced NO overproduction in mouse RAW264.7 cells at 1 uM incubated for 2 hrs followed by LPS stimulation and measured after 22 hrs by Griess reagent based assay relative to control; type: functional; details: Mus musculus, RAW264.7
[3] = biological target: T2, Bromodomain-containing protein 3 (Homo sapiens, UniProt Q15059); assay: Displacement of tetra-acetylated histone H4 peptide (1-21) from BRD3 BD1 (unknown origin) incubated for 30 mins followed by further incubation with tetra-acetylated histone H4 peptide (1-21) for 30 mins by Alphascreen assay
T2 sequence (Q15059 whole entry): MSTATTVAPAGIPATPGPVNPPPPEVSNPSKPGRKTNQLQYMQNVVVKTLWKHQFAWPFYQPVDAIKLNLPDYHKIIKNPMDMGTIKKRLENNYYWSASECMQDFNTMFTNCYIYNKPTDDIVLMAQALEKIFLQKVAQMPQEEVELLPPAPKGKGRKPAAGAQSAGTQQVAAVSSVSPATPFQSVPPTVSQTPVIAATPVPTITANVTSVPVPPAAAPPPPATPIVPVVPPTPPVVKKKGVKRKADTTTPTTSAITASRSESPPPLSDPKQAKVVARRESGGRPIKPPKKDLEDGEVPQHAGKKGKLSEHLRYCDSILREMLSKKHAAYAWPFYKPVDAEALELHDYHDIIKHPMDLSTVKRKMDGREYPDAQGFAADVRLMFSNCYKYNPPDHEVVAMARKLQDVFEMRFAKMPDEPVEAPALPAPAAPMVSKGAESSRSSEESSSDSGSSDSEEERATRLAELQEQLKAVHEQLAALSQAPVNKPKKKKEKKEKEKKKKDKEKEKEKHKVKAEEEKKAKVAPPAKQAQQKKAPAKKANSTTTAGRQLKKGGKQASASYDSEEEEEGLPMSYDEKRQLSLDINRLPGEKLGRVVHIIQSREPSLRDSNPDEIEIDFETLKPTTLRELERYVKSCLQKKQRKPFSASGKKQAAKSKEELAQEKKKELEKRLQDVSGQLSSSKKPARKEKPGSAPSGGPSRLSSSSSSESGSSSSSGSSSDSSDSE

[4] = biological target: Bromodomain-containing protein 2 (Homo sapiens, UniProt P25440); assay: Displacement of tetra-acetylated histone H4 peptide (1-21) from BRD2 BD2 (unknown origin) incubated for 30 mins followed by further incubation with tetra-acetylated histone H4 peptide (1-21) for 30 mins by Alphascreen assay
Bromodomain-containing protein 2, sequence (P25440 whole entry): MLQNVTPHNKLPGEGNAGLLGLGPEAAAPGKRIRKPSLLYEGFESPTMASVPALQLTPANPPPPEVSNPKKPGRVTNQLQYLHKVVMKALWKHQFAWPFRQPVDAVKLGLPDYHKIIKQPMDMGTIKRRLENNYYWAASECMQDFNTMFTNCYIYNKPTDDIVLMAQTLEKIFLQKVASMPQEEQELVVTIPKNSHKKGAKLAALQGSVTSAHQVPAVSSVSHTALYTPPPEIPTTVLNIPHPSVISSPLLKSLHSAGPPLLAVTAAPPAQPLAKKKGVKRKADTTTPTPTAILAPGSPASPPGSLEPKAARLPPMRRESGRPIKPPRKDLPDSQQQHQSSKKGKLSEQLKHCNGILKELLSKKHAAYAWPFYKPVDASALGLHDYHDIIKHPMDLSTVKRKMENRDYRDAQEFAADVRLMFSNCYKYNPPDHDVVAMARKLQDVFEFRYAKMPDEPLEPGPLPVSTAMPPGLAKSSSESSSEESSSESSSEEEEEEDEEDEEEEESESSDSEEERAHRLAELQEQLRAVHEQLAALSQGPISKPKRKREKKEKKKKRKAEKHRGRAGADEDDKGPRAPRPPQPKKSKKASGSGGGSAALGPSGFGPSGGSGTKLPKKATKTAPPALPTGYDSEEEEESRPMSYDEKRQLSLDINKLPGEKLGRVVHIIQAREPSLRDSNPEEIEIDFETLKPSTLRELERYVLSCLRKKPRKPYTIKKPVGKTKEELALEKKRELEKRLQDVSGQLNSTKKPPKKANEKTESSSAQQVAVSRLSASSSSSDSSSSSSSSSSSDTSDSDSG

[5] = biological target: T2, Bromodomain-containing protein 3; assay: Displacement of tetra-acetylated histone H4 peptide (1-21) from BRD3 BD2 (unknown origin) incubated for 30 mins followed by further incubation with tetra-acetylated histone H4 peptide (1-21) for 30 mins by Alphascreen assay
[6] = biological target: T3, Peregrin (Homo sapiens, UniProt P55201); assay: Displacement of tetra-acetylated histone H4 peptide (1-21) from BRPF1b (unknown origin) incubated for 30 mins followed by further incubation with tetra-acetylated histone H4 peptide (1-21) for 30 mins by Alphascreen assay
T3 sequence (P55201 whole entry): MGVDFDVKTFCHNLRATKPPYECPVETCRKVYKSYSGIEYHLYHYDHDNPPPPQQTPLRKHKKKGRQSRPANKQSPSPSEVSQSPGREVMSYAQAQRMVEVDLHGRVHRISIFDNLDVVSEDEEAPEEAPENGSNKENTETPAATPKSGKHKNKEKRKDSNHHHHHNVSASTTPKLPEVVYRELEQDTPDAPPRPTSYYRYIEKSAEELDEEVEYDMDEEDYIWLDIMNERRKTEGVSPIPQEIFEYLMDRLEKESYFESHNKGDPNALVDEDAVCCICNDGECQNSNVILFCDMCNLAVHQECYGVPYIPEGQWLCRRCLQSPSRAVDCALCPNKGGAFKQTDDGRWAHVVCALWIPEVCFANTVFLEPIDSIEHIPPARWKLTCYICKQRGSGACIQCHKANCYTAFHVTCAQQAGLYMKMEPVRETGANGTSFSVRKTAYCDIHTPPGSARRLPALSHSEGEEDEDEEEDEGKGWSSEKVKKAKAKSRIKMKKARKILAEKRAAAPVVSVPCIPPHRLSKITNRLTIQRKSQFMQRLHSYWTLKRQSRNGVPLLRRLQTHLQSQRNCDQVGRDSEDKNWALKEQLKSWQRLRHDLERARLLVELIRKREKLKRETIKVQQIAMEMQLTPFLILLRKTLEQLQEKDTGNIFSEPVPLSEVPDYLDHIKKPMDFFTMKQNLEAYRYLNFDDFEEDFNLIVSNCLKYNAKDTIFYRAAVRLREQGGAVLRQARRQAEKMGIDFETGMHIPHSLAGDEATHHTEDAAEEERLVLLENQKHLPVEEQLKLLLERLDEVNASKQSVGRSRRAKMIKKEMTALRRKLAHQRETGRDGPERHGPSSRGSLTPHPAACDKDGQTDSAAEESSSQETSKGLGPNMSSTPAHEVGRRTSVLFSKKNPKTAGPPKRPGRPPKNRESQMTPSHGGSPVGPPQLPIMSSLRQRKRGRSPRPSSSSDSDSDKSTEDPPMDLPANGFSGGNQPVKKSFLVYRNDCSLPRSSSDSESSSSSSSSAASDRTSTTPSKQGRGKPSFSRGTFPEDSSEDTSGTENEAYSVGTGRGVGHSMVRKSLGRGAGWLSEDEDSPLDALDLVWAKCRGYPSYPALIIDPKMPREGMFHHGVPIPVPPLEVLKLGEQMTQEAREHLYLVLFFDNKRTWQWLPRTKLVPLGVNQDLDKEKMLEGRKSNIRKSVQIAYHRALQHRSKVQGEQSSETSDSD

[7] = organism: Homo sapiens; assay: Selectivity index, ratio of IC50 BRD2 BD1 (unknown origin) to IC50 for recombinant human N-terminal His-tagged BRD4 BD1 (44 to 170 residues) expressed in Escherichia coli by AlphaScreen assay
[8] = organism: Homo sapiens; assay: Selectivity index, ratio of IC50 for BRDT BD1 (unknown origin) to IC50 for recombinant human N-terminal His-tagged BRD4 BD1 (44 to 170 residues) expressed in Escherichia coli by AlphaScreen assay
[9] = organism: Homo sapiens; assay: Selectivity index, ratio of IC50 for BRD2 BD2 (unknown origin) to IC50 for recombinant human N-terminal His-tagged BRD4 BD1 (44 to 170 residues) expressed in Escherichia coli by AlphaScreen assay
[10] = biological target: T1, Bromodomain-containing protein 4; assay: Binding affinity to immobilized DNA-tagged human BRD4 BD1 by BROMOscan analysis
[11] = Metabolic stability in human liver microsomes assessed as intrinsic clearance measured per mg protein upto 60 mins by LC/MS-MS analysis; type: ADME, Microsome; details: read-out: CLH
[12] = Metabolic stability in monkey liver microsomes assessed as intrinsic clearance per mg protein measured upto 60 mins by LC/MS-MS analysis; type: ADME, Macaca mulatta, Microsome; details: rhesus monkey, read-out: CLH
[13] = Metabolic stability in monkey assessed as intrinsic hepatic clearance by LC/MS-MS analysis; type: ADME, Macaca mulatta; details: rhesus monkey; read-out: CLH
[14] = Metabolic stability in dog assessed as intrinsic hepatic clearance by LC/MS-MS analysis; type: ADME, Canis lupus familiaris; details: read-out: CLH
[15] = Metabolic stability in rat liver microsomes assessed as half life measured upto 60 mins by LC/MS-MS analysis; type: ADME, Microsome
[16] = Metabolic stability in rat liver microsomes assessed as intrinsic clearance measured per mg protein upto 60 mins by LC/MS-MS analysis; type: ADME, Microsome; details: read-out: CLH
[17] = Metabolic stability in rat assessed as intrinsic hepatic clearance by LC/MS-MS analysis; type: ADME; details: read-out: CLH
[18] = biological target: T1, Bromodomain-containing protein 4; assay: Inhibition of BRD4 BD1 in human THP1 cells assessed as inhibition of MSU-induced NLRP3 inflammasome at 1 uM incubated for 1 hr followed by MSU treatment and measured after 12 hrs by Western blot analysis; type: cell-based
[19] = system: Rattus norvegicus; assay: Anti-arthritic activity in Sprague-Dawley rat model of acute gout arthritis assessed as reduction in MSU-induced synovial hyperplasia at 1 mg/kg, ia administered 1 hr before MSU challenge and measured upto 24 hrs by hematoxylin and eosin staining based histopathological analysis; type: functional, organism-based
[20] = system: Rattus norvegicus; assay: In vivo inhibition of MSU-induced BRD4 expression in synovial tissue of Sprague-Dawley rat model of acute gout arthritis at 1 mg/kg, ia administered 1 hr before MSU challenge and measured upto 24 hrs by Western blot analysis; type: functional, organism-based
[21] = system: Rattus norvegicus; assay: In vivo inhibition of MSU-induced ASC activation in synovial tissue of Sprague-Dawley rat model of acute gout arthritis at 1 mg/kg, ia administered 1 hr before MSU challenge and measured upto 24 hrs by immunofluorescence based confocal microscopy analysis; type: functional, organism-based

COc1ccccc1S(=O)(=O)Nc1ccc2c3c(cc(-n4cnc(C)c4)nc13)C(=O)N2C
IC50 [1]: 0.0877 µM
inhibition at 1 µM [2]: 102%
IC50 [3]: 0.246 µM
IC50 [4]: 21.4 µM
IC50 [5]: 49.8 µM
IC50 [6]: 0.568 µM
Ratio IC50 [7]: 102
Ratio IC50 [8]: 4.1
Ratio IC50 [9]: 244
Kd [10]: 0.105 µM
microsomal CLint [11]: 93.5 µL/min/mg
microsomal CLint [12]: 135 µL/min/mg
CLint scaled [13]: 194 mL/min/kg
CLint scaled [14]: 192 mL/min/kg
half-life [15]: 9.45 min
microsomal CLint [16]: 147 µL/min/mg
CLint scaled [17]: 264 mL/min/kg
inhibition [18]: Active
inhibition [19]: Active
inhibition [20]: Active
inhibition [21]: Active
